# Values of other authors in patent US6743947B1, “Electrochemically stable onium salts and electrolytes containing such for electrochemical capacitors” (The United States of America as represented by the …, priority 1999, dated 2004).
# Like-named read-outs stand apart in the source and are kept apart here.
# Tests used:
# [1] = room temperature
smiles,measurement,setting,value
"CC[N+](CC)(CC)CC.F[B-](F)(F)F [Et4NBF4, tetraethylammonium tetrafluoroborate]",conductivity,"[1]; in AN, 1.4 M",about 50 mS/cm
same,conductivity,"[1]; in PC, 0.65 M",8.8 mS/cm
same,saturated salt concentration,"in acetonitrile (AN), room temperatures",about 1.68 M
same,saturated concentration,"in propylene carbonate (PC), room temperature",0.86 M
